Measurements taken from patent US11759430B2, “Active substance carrier comprising biopolymer” (AMOREPACIFIC CORPORATION, priority 2019, dated 2023).

System: stratum corneum of the cultured artificial skin (human epidermal keratinocytes)
Test: Test Example 2: transdermal penetration of hydrophobic fluorescent dye (Nile red) into artificial skin
Type: in vitro ADME
Conditions: after a night, stratum corneum average thickness 10.73 μm, FIG. 7
Procedure: The following experiment was conducted in order to investigate whether the core-shell network structure according to an exemplary embodiment of the present disclosure serves as a carrier facilitating the transdermal absorption of an active substance.
First, a core-shell network solution (Example 3) was prepared in the same manner as in Example 2 except that, instead of the red ginseng saponin as the active substance, a hydrophobic fluorescent dye (Nile red, Sigma-Aldrich) was encapsulated at a concentration of […]. The contents of zein, pullulan and pectin of Example 3 based on the total weight of the composition were 0.01 wt %, 0.02 wt % and 0.002 wt %, respectively. […]
The cells were exposed to the air by removing the medium except for the part occupied by the cells. […] After freezing using an OCT (Cryomatrix, Thermo Scientific) and slicing to a thickness of 10 μm, the frozen sections were imaged with a fluorescence microscope (BX53, Olympus, Japan) and a microscopic digital camera (DP72, Olympus, Japan). […] To compare the effect of the present disclosure, the stratum corneum of the skin was treated only with a hydrophobic fluorescent dye in Comparative Example 3, and the degree of penetration of the hydrophobic fluorescent dye was analyzed in the same manner.

CCN(CC)c1ccc2nc3c4ccccc4c(=O)cc-3oc2c1 [Comparative Example 3, Nile red]
penetration depth of the dye into the stratum corneum, on average: about 3.62 μm
